The values below come from paper PMC8599359 (Molecular Neurobiology, 2021).

Structures are written as SMILES. pIC50: −log10 of the molar value.

The test system of test [1] is MMP. As to the kind of experiment: Broad-spectrum MMP activity in embryonic brain (fluorometric substrate). It is filed as in vivo, mouse. Conditions: GD 16.5, dams 50 mg/kg/day oral GD 0.5-15.5, compared to controls. The method, then: Broad-spectrum MMP activity was measured in whole brain tissue homogenates of normal, viable embryos (GD 16.5) using a quenched fluorogenic substrate, OMNIMMP® RED (BML-P277-0100, Enzo Life Sciences). Whole brain tissues were isolated from randomly selected embryos from different dams for both DTG and control groups. Tissues were homogenized in NP-40 lysis buffer using a Qiagen TissueLyzer II (Valencia, CA). Tissue lysates were centrifuged at 16,000 g at 4 °C for 20 min and supernatants were collected. Total protein levels in each sample were quantitated using Pierce™ BCA Protein Assay Kit (Thermo Fisher Scientific, Waltham, MA). The assays were performed in a 96-well, black, flat, microplate format. Fifty micrograms of protein for each sample was incubated with buffer (BML-KI175-0020, Enzo Life Sciences) at 37 °C for 60 min. Each sample was platted in duplicates. Later, reaction was started by adding fluorogenic substrate. Plate was read at similar instructions mentioned above for fluorometric substrate assay. Ilomastat (GM6001; broad-spectrum MMP inhibitor, ab120845, abcam) was added to randomly selected protein samples in additional wells at 20 µM concentration as an assay control.

The test system of test [2] is MMP-14. The experiment in a line: MMP expression in embryo brain (Western blot). Conditions: GD 16.5, DTG vs control. It is filed as in vivo, mouse. How it is done: (§1) At GD 16.5, embryo whole brain tissues were isolated and homogenized in lysis buffer. Whole brain tissue homogenates were analyzed for expression of MMP-2, 9, and 14 using Western blot assay. Six pups were randomly selected from 6 different dams for both DTG- and vehicle-treated groups. Tissue lysates were centrifuged at 16,000 × g at 4 °C for 20 min and supernatants were collected. Total protein levels in each sample were quantitated using Pierce™ BCA Protein Assay Kit (Thermo Fisher Scientific). Fifteen micrograms of protein for each sample was ran on 10% SDS–polyacrylamide gel. Proteins were transferred to activated PVDF membrane. Membranes were blocked with 5% non-fat milk (BIO-RAD) for 1 h and incubated with individual primary antibody overnight at 4 °C on a shaker. The primary antibodies used were rabbit monoclonal anti-MMP-2 (ab181286, abcam, Cambridge, MA), rabbit polyclonal anti-MMP-9 (ab38898, abcam), rabbit monoclonal anti-MMP-14 (ab51074, abcam), rabbit monoclonal GAPDH (Cell Signaling Technology, Inc., Danvers, MA), and mouse monoclonal β-actin (Santa Cruz Biotechnology, Dallas, TX). All the primary antibodies were used at 1:2000 dilution. After overnight incubation with primary antibody, the membranes were washed with Tris-buffered saline with 0.1% Tween® 20 detergent (TBST) three times (5 min each wash). Membranes were then incubated with secondary antibody for 1 h at room temperature. The secondary antibodies used were goat anti-rabbit IgG H&L (HRP) (ab205718, abcam) and goat anti-mouse IgG H&L (HRP) (ab205719, abcam). For secondary antibodies, 1:10,000 dilutions were used. Blots were developed using SuperSignal™ West Femto Maximum Sensitivity Substrate (Thermo Fisher Scientific) and iBright 750 Imaging System. Band intensity was analyzed using ImageJ software.
For orientation: Immunoblotting shows a protein as a band on a membrane.

Test [3] has as its system MMP-9. The experiment in a line: MMP expression in embryo brain (Western blot). It is filed as in vivo, mouse. To be noted: GD 16.5, DTG vs control. The method, then: as §1
Test [4] has as its system MMP-2. The experiment in a line: MMP expression in embryo brain (Western blot). To be noted: GD 16.5, DTG vs control. It is filed as in vivo, mouse. How it is done:
as §1

The target in test [5] is T1, MMP-8 (Homo sapiens, UniProt P22894).
T1 construct: purchased Enzo life sciences BML-AK308
T1 sequence (P22894 101-467): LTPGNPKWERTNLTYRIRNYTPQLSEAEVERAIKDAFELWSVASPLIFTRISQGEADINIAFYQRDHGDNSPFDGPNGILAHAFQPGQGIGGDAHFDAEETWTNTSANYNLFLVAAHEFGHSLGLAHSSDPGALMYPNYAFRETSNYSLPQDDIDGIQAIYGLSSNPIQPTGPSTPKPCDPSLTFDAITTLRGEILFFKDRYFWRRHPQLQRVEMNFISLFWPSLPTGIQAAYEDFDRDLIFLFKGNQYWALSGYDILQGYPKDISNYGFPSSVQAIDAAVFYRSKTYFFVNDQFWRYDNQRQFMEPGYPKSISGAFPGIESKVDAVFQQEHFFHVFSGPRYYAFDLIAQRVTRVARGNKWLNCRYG
The experiment in a line: Fluorometric substrate assay (MMP inhibitor profiling kit). Format: biochemical. How it is done: (§2) Kit contained a panel of ten MMPs and a quenched fluorogenic substrate OMNIMMP® RED. Composition of a quenched fluorogenic substrate was TQ3-GABA-Pro-Cha-Abu-Smc-His-Ala-Dab(6’-TAMRA)-Ala-Lys-NH2 [TQ3 = quencher; GABA = 4-aminobutyric acid; Cha = L-cyclohexylalanine; Abu = 2-aminobutyric acid; Smc = S-methyl-L-cysteine; Dab = 2,4-diaminobutyric acid; 6’-TAMRA = 6’-tetramethylrhodamine]. Experiment was performed as per instructions provided in the manufacturer’s manual. The assays were performed in a 96-well, black, flat, microplate format. The compound NNGH was provided as a prototypic control inhibitor. […] Untreated MMPs were used as control. The experiment was performed in biological triplicates. After 60-min incubation, fluorogenic substrate OMNIMMP® RED was added to each reaction/well to start the reaction. The plate was continuously read at Ex/Em = 545/576 nm (cutoff at 570 nm) for 30 min with 1-min time intervals at constant temperature, 37 °C, using Molecular Devices SpectraMax M3 plate reader with SoftMax Pro 6.2 software.

The target of test [6] is T2, MMP-19 (Homo sapiens, UniProt Q99542).
T2 construct: purchased Enzo life sciences BML-AK308
T2 sequence (Q99542 98-508): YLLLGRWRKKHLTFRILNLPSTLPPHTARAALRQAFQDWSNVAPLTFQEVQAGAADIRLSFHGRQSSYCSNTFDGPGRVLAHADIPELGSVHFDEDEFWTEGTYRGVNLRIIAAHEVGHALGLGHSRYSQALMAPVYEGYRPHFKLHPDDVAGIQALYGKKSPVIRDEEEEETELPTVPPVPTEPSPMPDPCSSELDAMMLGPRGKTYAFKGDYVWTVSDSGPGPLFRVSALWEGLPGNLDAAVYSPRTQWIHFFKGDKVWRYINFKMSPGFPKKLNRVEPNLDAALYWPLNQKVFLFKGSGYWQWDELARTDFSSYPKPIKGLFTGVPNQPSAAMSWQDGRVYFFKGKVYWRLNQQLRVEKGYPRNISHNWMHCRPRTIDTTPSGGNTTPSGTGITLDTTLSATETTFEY
The description is as above. Format: biochemical. To be noted: human recombinant MMP-19, 60 min preincubation, four-parameter fit. The method, then: as §2

For test [7], the target named is T3, MMP-3 (Homo sapiens, UniProt P08254).
T3 construct: purchased Enzo life sciences BML-AK308
T3 sequence (P08254 100-477): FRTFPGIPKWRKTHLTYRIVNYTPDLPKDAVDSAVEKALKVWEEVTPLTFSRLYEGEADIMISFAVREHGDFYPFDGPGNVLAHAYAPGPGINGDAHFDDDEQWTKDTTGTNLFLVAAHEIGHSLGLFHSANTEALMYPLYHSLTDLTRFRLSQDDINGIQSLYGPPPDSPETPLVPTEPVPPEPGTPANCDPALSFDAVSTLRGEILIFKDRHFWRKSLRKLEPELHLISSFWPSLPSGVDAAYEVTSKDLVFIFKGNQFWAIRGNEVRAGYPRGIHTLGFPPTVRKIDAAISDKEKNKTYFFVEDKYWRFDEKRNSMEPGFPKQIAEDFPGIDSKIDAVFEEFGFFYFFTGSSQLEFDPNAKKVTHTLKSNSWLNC
Described as above. It is filed as biochemical. To be noted: human recombinant MMP-3, 60 min preincubation, four-parameter fit. How it is done: as §2

For test [8], the target named is T4, MMP-1 (Homo sapiens, UniProt P03956).
T4 construct: purchased Enzo life sciences BML-AK308
T4 sequence (P03956 100-469): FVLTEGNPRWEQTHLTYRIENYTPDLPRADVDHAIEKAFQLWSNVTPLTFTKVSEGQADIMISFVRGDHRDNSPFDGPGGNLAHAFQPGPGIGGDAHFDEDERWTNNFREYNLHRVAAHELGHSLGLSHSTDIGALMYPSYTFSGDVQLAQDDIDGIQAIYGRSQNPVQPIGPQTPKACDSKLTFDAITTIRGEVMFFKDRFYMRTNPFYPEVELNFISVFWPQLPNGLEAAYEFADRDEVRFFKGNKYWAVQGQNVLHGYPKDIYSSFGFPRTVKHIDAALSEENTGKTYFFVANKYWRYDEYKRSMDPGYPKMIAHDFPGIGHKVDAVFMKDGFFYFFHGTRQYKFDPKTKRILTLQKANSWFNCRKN
The test is described as above. To be noted: human recombinant MMP-1, 60 min preincubation, four-parameter fit. It is filed as biochemical. The method, then: as §2

The target in test [9] is T5, MMP-14 (Homo sapiens, UniProt P50281).
T5 construct: purchased Enzo life sciences BML-AK308
Described as above. Format: biochemical. The method, then:
as §2

For test [10], the target named is T6, MMP-12 (Homo sapiens, UniProt P39900).
T6 construct: purchased Enzo life sciences BML-AK308
T6 sequence (P39900 106-470): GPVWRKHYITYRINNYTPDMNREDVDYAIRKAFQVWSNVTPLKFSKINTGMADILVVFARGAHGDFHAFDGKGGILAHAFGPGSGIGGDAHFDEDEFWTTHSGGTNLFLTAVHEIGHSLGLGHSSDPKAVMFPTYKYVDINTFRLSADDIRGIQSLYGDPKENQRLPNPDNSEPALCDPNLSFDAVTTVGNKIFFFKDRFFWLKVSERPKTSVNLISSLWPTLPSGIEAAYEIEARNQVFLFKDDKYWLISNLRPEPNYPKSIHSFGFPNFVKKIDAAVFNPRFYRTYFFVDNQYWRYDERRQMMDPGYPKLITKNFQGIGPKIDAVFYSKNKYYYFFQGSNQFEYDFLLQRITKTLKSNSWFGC
The test is described as above. To be noted: human recombinant MMP-12, 60 min preincubation, four-parameter fit. Format: biochemical. How it is done:
as §2

Test [11] concerns the target T7, MMP-13 (Homo sapiens, UniProt P45452).
T7 construct: purchased Enzo life sciences BML-AK308
Described as above. It is filed as biochemical. How it is done: as §2

Test [12] deals with T8, MMP-7 (Homo sapiens, UniProt P09237).
T8 construct: purchased Enzo life sciences BML-AK308
T8 sequence (P09237 95-267): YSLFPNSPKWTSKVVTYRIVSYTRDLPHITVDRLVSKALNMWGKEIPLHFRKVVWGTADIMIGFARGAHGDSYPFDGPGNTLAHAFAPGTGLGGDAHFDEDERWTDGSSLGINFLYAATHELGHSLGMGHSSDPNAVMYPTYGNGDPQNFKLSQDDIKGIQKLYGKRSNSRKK
The description is as above. It is filed as biochemical. To be noted: human recombinant MMP-7, 60 min preincubation, four-parameter fit. How it is done: as §2

In general, pIC50 refers to the negative decadic logarithm of the IC50, by convention in mol/L. Consider `C[C@@H]1CCO[C@H]2Cn3cc(C(=O)NCc4ccc(F)cc4F)c(=O)c(O)c3C(=O)N12` [DTG, Dolutegravir], for which the “Broad-spectrum MMP activity in embryonic brain” value in [1] was “significantly inhibited”. Besides, the “protein levels of MMP-14 in embryo brain tissue” value in test [2] was “No significant differences”. For the same molecule, the “protein levels of MMP-9 in embryo brain tissue” value in [3] is given as “No significant differences”. Besides, the “protein levels of MMP-2 in embryo brain tissue” value in test [4] is “No significant differences”. Moreover, the “inhibitory effect compared to doxycycline” value in [5] (MMP-8, 20 µM) is “higher inhibitory effect”; in test [9] (MMP-14, 20 µM) it was “higher inhibitory effect”; in test [11] (MMP-13, 20 µM), “higher inhibitory effect”. The pIC50 in test [5] (human recombinant MMP-8, 60 min preincubation, four-parameter fit) is 4.92; in test [6] it was 4.27; in test [7], 4.22; in [8] it was 4.08; in test [9] (human recombinant MMP-14, 60 min preincubation, four-parameter fit), 4.98; in [10], 3.88. Further, the pIC50 was 4.44 in test [11] (human recombinant MMP-13, 60 min preincubation, four-parameter fit) and 3.51 in test [12].
